Experiments:
Format in all cases: cell-based
[1] = test system: L428 Hodgkin lymphoma cells; test: Cell proliferation on L428 cells (counted in Burker chamber); conditions: head says SRB, cells counted using a Burker chamber
Method: (§1) 3 × 10^3 Capan2 cells, 2 × 10^3 Saos cells and 8 × 10^3 L428 were plated to 96 well plates. Cells were treated with the compounds in the concentrations for 48 h. Then for Capan2 and Saos SRB assay was performed, L428 cells were counted using a Burker chamber. Data is represented as average ± SD, from three biological replicates; individual assays were performed in duplicates. Values were normalized for vehicle treated cells, absorbance for vehicle treated cells equals to 1. Normality was checked using the Shapiro-Wilk test. The Saos Os-7 dataset was normalized using the Box-Cox method, other datasets had normal distribution. Each complex was individually assessed for statistical significance using One-way ANOVA test followed by Dunnett’s post hoc test; all values were compared to the values of the lowest concentration. For better visibility the p values are presented in an excel sheet at https://figshare.com/s/2c942a812caea8869a67. Non-linear regression was performed on the Capan2 and Saos datasets.
Cells were seeded in 96 well plates the day before the assay. Cells were treated with the compounds for […]. Cells were counted using a Burker chamber. On each plate wells were designed to contain untreated cells. In calculations the readings for these wells was considered as 1 and all readings were expressed relative to these values.

[2] = test system: 4-hydroxynonenal (4HNE)-modified proteins in A2780 cells; test: Western blot for 4HNE-modified proteins in A2780 cells; conditions: IC50 concentrations, 15 or 30 min, bands ∼70 kDa and ∼60 kDa
Method: FIGURE 9 (A) Vitamin E, a lipid soluble antioxidant blocks the cytostatic activity of the bioactive complexes. 1.5 × 10^3 A2780 cells were plated to 96 well plates. Cells were treated with the compounds in the concentrations indicated for 48 h followed by an SRB assay. Data is represented as average ± SD, from four biological replicates; individual assays were performed in duplicates. Values were normalized for vehicle treated cells, absorbance for vehicle treated cells equals to 1. Normality was checked using the D’Agostino-Pearson normality test. […] Statistical significance was assessed using two-way ANOVA test comparing all measurement points. * and *** represent statistical significance at p <0.05 and 0.001, respectively, between the lowest concentration and the higher concentrations among non-vitamin E-treated cells. ! and !!! represent statistical significance at p <0.05 and 0.001, respectively, between the lowest concentration and the higher concentrations among vitamin E-treated cells. #, ## and ### represent statistical significance at p <0.05, p <0.01 and 0.001, respectively, between the non-vitamin E-treated vs. vitamin E-treated cells. […] Cells were harvested and lysed. Cellular proteins were separated on a 10% SDS-PAGE gel and were blotted. […]
To complement the vitamin E experiments we assessed oxidative stress by detecting the formation of 4-hydroxynonenal (4HNE)-modified proteins, a hallmark of oxidative stress ([Ayala et al., 2014]; [Zhang and Forman, 2017]). […]
SDS-polyacrylamide gel electrophoresis and Western blot was performed as in ([Márton et al., 2018]) using an antibody against 4HNE (Abcam (ab46545) 1:1000) that was detected using a corresponding peroxidase-conjugated secondary antibody (1:10000, Cell Signaling Technology, Inc., Beverly, MA, United States). […] ECL and amido black pictures were captured using the ChemiDoc Touch Imaging System (Bio-Rad Laboratories, Inc., Hercules, California, United States) and the pictures were evaluated using the Image Lab software (Bio-Rad).

Saos osteosarcoma cells = test: SRB assay (48 h) on Saos cells
Method: as §1
Saos cells were maintained in DMEM (4.5 g/L glucose) medium supplemented with 10% fetal calf serum, 2 mM glutamine, 1% penicillin-streptomycin.
The assay was performed similar to ([Kovács et al., 2019]). Cells were seeded in 96 well plates the day before the assay. Cells were treated with the compounds for 48 h. Cells were fixed with 10% trichloroacetic acid (TCA). Fixed cells were washed in distilled water 3 times followed by staining with SRB (0.4 m/V% dissolved in 1% acetic acid) for 10 min. Stained cells were washed in 1% acetic acid 5 times; acetic acid was removed and cells were left to dry. Protein-bound SRB was released by adding 100 µl 10 mM Tris base. Plates were measured in a plate photometer (Thermo Scientific Multiscan GO spectrophotometer, Waltham, MA, United States) at 540 nm. On each plate wells were designed to contain vehicle-treated cells. In calculations the readings for these wells was considered as 1 and all readings were expressed relative to these values.
Statistical analysis was performed using 8.0.1 version of Graphpad Prism. Values were tested for normal distribution using the D’Agostino and Pearson normality test. When necessary, values were log normalized or were normalized using the Box-Cox normalization method ([Box and Cox, 1964]) as indicated in the figure captions. Non-linear regression was performed using the built-in “[Inhibitor] vs. response—Variable slope (four parameters), least square fit” utility of Graphpad that yielded IC50 and Hill slope values.

Structure (SMILES) | L428 maximal inhibition (cell count) [1] | 4HNE formation (4HNE-modified proteins) [2] | IC50 (Saos osteosarcoma cells) | SAOS SRB Max. (maximal inhibition) (Saos osteosarcoma cells)
Cc1c(C)c(C)[c-](C)c1C.F[P-](F)(F)(F)(F)F.O=C(OCC1OC(n2cc(-c3ccc4ccccc4n3)nn2)C(OC(=O)c2ccccc2)C(OC(=O)c2ccccc2)C1OC(=O)c1ccccc1)c1ccccc1.[Cl][Ir+2] (mixture of isomers) [Ir-7] | >90% | gross induction of 4HNE formation | 1.58 µM | 33%
Cc1ccc(C(C)C)cc1.F[P-](F)(F)(F)(F)F.O=C(OCC1OC(n2cc(-c3ccc4ccccc4n3)nn2)C(OC(=O)c2ccccc2)C(OC(=O)c2ccccc2)C1OC(=O)c1ccccc1)c1ccccc1.[Cl][Os+] (mixture of isomers) [Os-7] | >90% | gross induction of 4HNE formation | 1.29 µM | 48.04%
Cc1ccc(C(C)C)cc1.F[P-](F)(F)(F)(F)F.O=C(OCC1OC(n2cc(-c3ccc4ccccc4n3)nn2)C(OC(=O)c2ccccc2)C(OC(=O)c2ccccc2)C1OC(=O)c1ccccc1)c1ccccc1.[Cl][Ru+] (mixture of isomers) [Ru-7] | 52.73% | gross induction of 4HNE formation | 1.18 µM | 33.64%

Reference: PMC9923724, “Half sandwich-type osmium, ruthenium, iridium and rhodium complexes with bidentate glycosyl heterocyclic ligands induce cytostasis in platinum-resistant ovarian cancer cells and bacteriostasis in Gram-positive multiresistant bacteria” (Frontiers in Chemistry, 2023)
